# Data reported in US20200055839A1 (priority 2017, published 2020).
# System: NL-RLuc virus
# Experiment: Inhibition of HIV replication (NL-RLuc virus, luciferase readout in MT-2 cells)
# Type: cell-based
# Details: Human immunodeficiency virus 1, MT2, 120 h, MT-2 cells infected with NL-RLuc virus, 5 days of incubation, 10% FBS, at least 2 experiments
# How it was run: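 EC50 derived via median effect equation from at least 2 experiments, using luciferase expression as virus-growth readout. Replication-competent NL-RLuc reporter virus (nef partly replaced by Renilla luciferase) infected MT-2 cells with serial compound dilutions; 5-day incubation in RPMI 1640 plus 10% FBS.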
row,SMILES,EC50 [nM]
1,"CC1(C)CCN(c2c(-c3ccc(CNc4ncnc5c4oc4ccccc45)cc3)cnc(Cl)c2[C@H](OC(C)(C)C)C(=O)O)CC1 [Example 201, (S)-2-(5-(4-((Benzofuro[3,2-d]pyrimidin-4-ylamino)methyl)phenyl)-2-chloro-4-(4,4-dimethylpiperidin-1-yl)pyridin-3-yl)-2-(tert-butoxy)acetic acid]",1
2,"CC1(C)CCN(c2c(-c3ccc(OCCc4ccc(F)cc4)cc3)cnc(N3CCCC3)c2[C@H](OC(C)(C)C)C(=O)O)CC1 [Example 202, (S)-2-(tert-Butoxy)-2-(4-(4,4-dimethylpiperidin-1-yl)-5-(4-(4-fluorophenethoxy)phenyl)-2-(pyrrolidin-1-yl)pyridin-3-yl)acetic acid]",75
3,"COc1c(F)cc(-c2c(CNCC3CCOCC3)nc(Cl)c([C@H](OC(C)(C)C)C(=O)O)c2N2CCC(C)(C)CC2)cc1F [Example 203, (S)-2-(tert-Butoxy)-2-(2-chloro-5-(3,5-difluoro-4-methoxyphenyl)-4-(4,4-dimethylpiperidin-1-yl)-6-((((tetrahydro-2H-pyran-4-yl)methyl)amino)methyl)pyridin-3-yl)acetic acid]",7
4,COc1c(F)cc(-c2c(CN3CCC4(CCC4)CC3)nc(Cl)c([C@H](OC(C)(C)C)C(=O)O)c2N2CCC(C)(C)CC2)cc1F [Example 204],1
5,"COc1c(F)cc(-c2c(CO)nc(Cl)c([C@H](OC(C)(C)C)C(=O)O)c2N2CCC(C)(C)CC2)cc1F [Example 205, (S)-2-(tert-Butoxy)-2-(2-chloro-5-(3,5-difluoro-4-methoxyphenyl)-4-(4,4-dimethylpiperidin-1-yl)-6-(hydroxymethyl)pyridin-3-yl)acetic acid]",6
6,"CC1(C)CCN(c2c(-c3ccc(OCCc4ccc(F)cc4)cc3)c(N)nc(Cl)c2[C@H](OC(C)(C)C)C(=O)O)CC1 [Example 206, (S)-2-(6-Amino-2-chloro-4-(4,4-dimethylpiperidin-1-yl)-5-(4-(4-fluorophenethoxy)phenyl)pyridin-3-yl)-2-(tert-butoxy)acetic acid]",2
7,"CC1(C)CCN(c2c(-c3ccc(F)c(F)c3)c(CN3CCC4(CCC4)CC3)nc(Cl)c2[C@H](OC(C)(C)C)C(=O)O)CC1 [Example 207, (S)-2-(6-((7-Azaspiro[3.5]nonan-7-yl)methyl)-2-chloro-5-(3,4-difluorophenyl)-4-(4,4-dimethylpiperidin-1-yl)pyridin-3-yl)-2-(tert-butoxy)acetic acid]",36
8,"CC1(C)CCN(c2c(-c3ccc(F)c(F)c3)cnc(Cl)c2[C@H](OC(C)(C)C)C(=O)O)CC1 [Example 208, (S)-2-(tert-Butoxy)-2-(2-chloro-5-(3,4-difluorophenyl)-4-(4,4-dimethylpiperidin-1-yl)pyridin-3-yl)acetic acid]",35
9,"CC1(C)CCN(c2c(-c3ccc(OCCc4ccc(F)cc4)c(F)c3)c(N)nc(Cl)c2[C@H](OC(C)(C)C)C(=O)O)CC1 [Example 209, (S)-2-(6-Amino-2-chloro-4-(4,4-dimethylpiperidin-1-yl)-5-(3-fluoro-4-(4-fluorophenethoxy)phenyl)pyridin-3-yl)-2-(tert-butoxy)acetic acid]",4
10,"CC1(C)CCN(c2c(-c3ccc(OCCc4ccc(F)cc4)c(F)c3)c(CN3CCC4(CCC4)CC3)nc(Cl)c2[C@H](OC(C)(C)C)C(=O)O)CC1 [Example 210, (S)-2-(6-((7-Azaspiro[3.5]nonan-7-yl)methyl)-2-chloro-4-(4,4-dimethylpiperidin-1-yl)-5-(3-fluoro-4-(4-fluorophenethoxy)phenyl)pyridin-3-yl)-2-(tert-butoxy)acetic acid]",2
11,"CC1(C)CCN(c2c(-c3ccc(OCCc4ccc(F)cc4)cc3)cnc(Cl)c2[C@H](OC(C)(C)C)C(=O)O)CC1 [Example 211, (S)-2-(tert-Butoxy)-2-(2-chloro-4-(4,4-dimethylpiperidin-1-yl)-5-(4-(4-fluorophenethoxy)phenyl)pyridin-3-yl)acetic acid]",3
12,"CC1(C)CCN(c2c(-c3ccc(OCCc4ccc(F)cc4)cc3)c(CO)nc(Cl)c2[C@H](OC(C)(C)C)C(=O)O)CC1 [Example 212, (S)-2-(tert-Butoxy)-2-(2-chloro-4-(4,4-dimethylpiperidin-1-yl)-5-(4-(4-fluorophenethoxy)phenyl)-6-(hydroxymethyl)pyridin-3-yl)acetic acid]",0.3
13,"CN(Cc1nc(Cl)c([C@H](OC(C)(C)C)C(=O)O)c(N2CCC(C)(C)CC2)c1-c1ccc(OCCc2ccc(F)cc2)cc1)CC1CCOCC1 [Example 213, (S)-2-(tert-Butoxy)-2-(2-chloro-4-(4,4-dimethylpiperidin-1-yl)-5-(4-(4-fluorophenethoxy)phenyl)-6-((methyl((tetrahydro-2H-pyran-4-yl)methyl)amino)methyl)pyridin-3-yl)acetic acid]",0.6
14,"CC1(C)CCN(c2c(-c3ccc(OCCc4ccc(F)cc4)c(F)c3)cnc(Cl)c2[C@H](OC(C)(C)C)C(=O)O)CC1 [Example 214, (S)-2-(tert-Butoxy)-2-(2-chloro-4-(4,4-dimethylpiperidin-1-yl)-5-(3-fluoro-4-(4-fluorophenethoxy)phenyl)pyridin-3-yl)acetic acid]",9
15,"CC1(C)CCN(c2c(-c3ccc(OCCc4ccc(F)cc4)c(F)c3)cnc(C#N)c2[C@H](OC(C)(C)C)C(=O)O)CC1 [Example 217, (S)-2-(tert-Butoxy)-2-(2-cyano-4-(4,4-dimethylpiperidin-1-yl)-5-(3-fluoro-4-(4-fluorophenethoxy)phenyl)pyridin-3-yl)acetic acid]",10
16,"Cc1ncc(-c2ccc(CNc3ncnc4c3oc3ccccc34)c(F)c2)c(N2CCC(C)(C)CC2)c1[C@H](OC(C)(C)C)C(=O)O [Example 218, (S)-2-(5-(4-((Benzofuro[3,2-d]pyrimidin-4-ylamino)methyl)-3-fluorophenyl)-4-(4,4-dimethylpiperidin-1-yl)-2-methylpyridin-3-yl)-2-(tert-butoxy)acetic acid]",0.2
17,"Cc1ncc(-c2cc(F)c(CNc3ncnc4c3oc3ccccc34)c(F)c2)c(N2CCC(C)(C)CC2)c1[C@H](OC(C)(C)C)C(=O)O [Example 219, (S)-2-(5-(4-((Benzofuro[3,2-d]pyrimidin-4-ylamino)methyl)-3,5-difluorophenyl)-4-(4,4-dimethylpiperidin-1-yl)-2-methylpyridin-3-yl)-2-(tert-butoxy)acetic acid]",2
18,"CN(Cc1ccc(-c2cnc(Cl)c([C@H](OC(C)(C)C)C(=O)O)c2N2CCC(C)(C)CC2)cc1)c1ncnc2c1oc1ccccc12 [Example 220, (S)-2-(5-(4-((Benzofuro[3,2-d]pyrimidin-4-yl(methyl)amino)methyl)phenyl)-2-chloro-4-(4,4-dimethylpiperidin-1-yl)pyridin-3-yl)-2-(tert-butoxy)acetic acid]",2
19,"CC1(C)CCN(c2c(-c3ccc(CNc4ncnc5c4oc4ccccc45)c(F)c3)cnc(Cl)c2[C@H](OC(C)(C)C)C(=O)O)CC1 [Example 221, (S)-2-(5-(4-((Benzofuro[3,2-d]pyrimidin-4-ylamino)methyl)-3-fluorophenyl)-2-chloro-4-(4,4-dimethylpiperidin-1-yl)pyridin-3-yl)-2-(tert-butoxy)acetic acid]",0.3
20,"CC1(C)CCN(c2c(-c3ccc(OCCc4ccc(F)cc4)cc3)cnc(C#N)c2[C@H](OC(C)(C)C)C(=O)O)CC1 [Example 222, (S)-2-(tert-Butoxy)-2-(2-cyano-4-(4,4-dimethylpiperidin-1-yl)-5-(4-(4-fluorophenethoxy)phenyl)pyridin-3-yl)acetic acid]",8
21,"CC1(C)CCN(c2c(-c3ccccn3)cnc(Cl)c2[C@H](OC(C)(C)C)C(=O)O)CC1 [Example 223, (2S)-2-(tert-Butoxy)-2-[6′-chloro-4′-(4,4-dimethylpiperidin-1-yl)-[2, 3′-bipyridine]-5′-yl]acetic acid]",15
22,"CC1(C)CCN(c2c(-c3ccc(OCCc4ccc(F)cc4)cn3)cnc(Cl)c2[C@H](OC(C)(C)C)C(=O)O)CC1 [Example 225, (2S)-2-(tert-Butoxy)-2-[6′-chloro-4′-(4,4-dimethylpiperidin-1-yl)-5-[2-(4-fluorophenyl)ethoxy]-[2, 3′-bipyridine]-5′-yl]acetic acid]",1
23,"CCC(C)(C)O[C@H](C(=O)O)c1c(C)ncc(-c2ccc(OCCc3ccc(F)cc3)c(F)c2)c1N1CCC(C)(C)CC1 [Example 226, (S)-2-(4-(4,4-Dimethylpiperidin-1-yl)-5-(3-fluoro-4-(4-fluorophenethoxy)phenyl)-2-methylpyridin-3-yl)-2-(tert-pentyloxy)acetic acid]",5
24,"COc1cnc(-c2cnc(C)c([C@H](OC(C)(C)C)C(=O)O)c2N2CCC(C)(C)CC2)nc1 [Example 228, (S)-2-(tert-Butoxy)-2-(4-(4,4-dimethylpiperidin-1-yl)-5-(5-methoxypyrimidin-2-yl)-2-methylpyridin-3-yl)acetic acid]",52
25,"COc1ccc(-c2cnc(C)c([C@H](OC(C)(C)C)C(=O)O)c2N2CCC(C)(C)CC2)nc1 [Example 229, (S)-2-(tert-Butoxy)-2-(4′-(4,4-dimethylpiperidin-1-yl)-5-methoxy-6′-methyl-[2, 3′-bipyridin]-5′-yl)acetic acid]",13
26,"Cc1nc(CO)c(-c2ccc(OCCc3ccc(F)cc3)c(F)c2)c(N2CCC(C)(C)CC2)c1[C@H](OC(C)(C)C)C(=O)O [Example 230, (S)-2-(tert-Butoxy)-2-(4-(4,4-dimethylpiperidin-1-yl)-5-(3-fluoro-4-(4-fluorophenethoxy)phenyl)-6-(hydroxymethyl)-2-methylpyridin-3-yl)acetic acid]",3
27,"Cc1nc(CN2CCC3(CCC3)CC2)c(-c2ccc(OCCc3ccc(F)cc3)c(F)c2)c(N2CCC(C)(C)CC2)c1[C@H](OC(C)(C)C)C(=O)O [Example 231, (S)-2-(6-((7-Azaspiro[3.5]nonan-7-yl)methyl)-4-(4,4-dimethylpiperidin-1-yl)-5-(3-fluoro-4-(4-fluorophenethoxy)phenyl)-2-methylpyridin-3-yl)-2-(tert-butoxy)acetic acid]",0.6
